Structures can show the parent of a compound that is named as a salt.
Legend:
human sperm motility = experiment: Sperm motility assessment by CASA after PDEi treatment (screening of 43 PDEi); type: cell-based; settings: for Effect on Sperm Motility: Mild / Effect on Sperm Motility: Strong: X or (X) marks the class, PDEi tested blinded at 1, 10 and 100 μM, 20 min at 37° C., CASA
Experimental: Almost all phosphodiesterase inhibitors (PDEi) were purchased from Tocris Bioscience (Bristol, UK) and the other inhibitors from Sigma-Aldrich (Dorset, UK) or Santa Cruz Biotechnology (Heidelberg, Germany) by the Drug Discovery Unit (DDU) at the College Life Sciences (University of Dundee, UK) as shown in Table 1. The DDU coded the PDEi upon arrival and the coded samples were tested for sperm function with a primary focus on sperm motility. All 43 PDEi were analyzed blinded with three independent times for quantitative sperm motility using three different final concentrations (1, 10 and 100 μM).
All chemicals were purchased from Sigma-Aldrich. Two different media were used 1-medium not supporting sperm capacitation NCM: 1.8 mM CaCl2, 5.4 mM KCl, 0.8 mM MgSO4.7H2O, 116.3 mM NaCl, 1.0 mM NaH2PO4, 5.55 mM D-glucose, 2.73 mM sodium pyruvate, 41.75 mM sodium lactate, 25 mM HEPES and 2-supporting capacitation CM: 1.8 mM CaCl2, 5.4 mM KCl, 0.8 mM MgSO4.7H2O, 116.3 mM NaCl, 1.0 mM NaH2PO4, 5.55 mM D-glucose, 2.73 mM sodium pyruvate, 25 mM sodium lactate, 26 mM sodium bicarbonate. Semen samples were obtained from healthy donors (normozoospermic) and samples were produced by masturbation into a sterile plastic container after 2-3 days of sexual abstinence. Two different sperm populations were isolated from the semen using a 40-80% discontinuous density gradient procedure. Briefly, 1 ml of semen was loaded after 30 min of liquefaction at 37° C. on the top of a colloidal silica suspension (Pure Sperm™, Nidacon, Mölndal, Sweden) made of 80% and 40% layered (2 ml each). The density gradient was centrifuged at 300×g for 20 min at room temperature. The motile population was found at the bottom of the 80% fraction and the poor motility population was recovered at the interface of 40-80%, respectively called 80% and 40% fraction. Both fractions were washed using a NCM, cells were isolated by a centrifugation for 5 min at 500×g and the sperm pellet was rediluted using a NCM or CM at ˜20-25×10^6 cells/ml. Sperm cells from 3-4 different donors were pooled together after sperm preparation in order to obtain enough cells to screen 4-5 PDEi at the same time and additionally to reduced the variability. The first screening was performed with a NCM because it is the conditions normally used in clinic for intrauterine insemination (IUI). Accordingly, NCM is recommended to prevent capacitation before IUI (Björndahl et al., 2010)
Following isolation, sperm were mixed with DMSO (vehicle; 1% final concentration) or PDEi [all inhibitors were reconstituted into 1% DMSO]. Sperm cells were incubated for 20 min at 37° C. and the sperm motility was evaluated by using a Computer-Assisted-Sperm-Analysis (CASA, Ceros system [version 12]; Hamilton Thorne, Beverly, Mass.) and 4 chamber slides […] (Vitrolife, Sweden). Sperm motility was evaluated from 4 samples per treatment and at least 2,000 sperm cells were analyzed in total (see below). The setting of the CASA used was that established by the manufacturer for human spermatozoa.

[1] = tested on: poor sperm motility population; experiment: Sperm penetration assay in 1% methyl cellulose; type: cell-based, human; settings: PDEi 100 μM, 20 minutes, scored at 1 cm distance, n=6 (FIG. 4)
Experimental: Methyl cellulose (1% concentration) was used to mimic cervical mucus viscosity and act as a sperm function test (Ivic et al., 2002). Sperm cells were previously treated with PDEi as described above. Glass tubes (5 cm×0.8 cm×2 mm; Vitrocom, NJ, USA) were loaded with methyl cellulose by capillary action (4,000 Sigma M-) prepared in NCM and one extremity was sealed with Cristaseal™ (Hawksley, Sussex, UK). The tubes was incubated with the sperm cells at 37° C. for 1 h 15 min, then the other extremity of the tube was sealed and the number of sperm cells scored at 1 cm and 2 cm using the CASA equipped with a 20× objective magnification. The microscope was adjusted to get the right focus manually at all planes to get the sum of the sperm migrated at this distance. The results are expressed as a penetration index calculated as the number of spermatozoa observed at the site of counting with treatment/the number of spermatozoa without treatment. The speed of sperm population at the migration distance was also analyzed.

Row | Compound | Effect on Sperm Motility: Mild (human sperm motility) | enhancement of sperm motility in a viscous solution (sperm penetration assay) [1] | also measured
1 | Cc1ccc([N+](=O)[O-])cc1S(=O)(=O)N(C)C [BRL 50481] | (X) |  | 
2 | Cl.Cl.Nc1nc(-c2ccc(Cl)c(Cl)c2)c(-c2ccncc2)s1 [CGH 2466 dihydrochloride] | (X) |  | 
3 | CN(C(=O)CCCOc1ccc2[nH]c(=O)ccc2c1)C1CCCCC1 [Cilostamide] |  |  | Effect on Sperm Motility: Strong (human sperm motility): (X)
4 | CCCCCC[C@@H]([C@@H](C)O)n1cnc2c(N)ncnc21.Cl [EHNA hydrochloride] | (X) |  | 
5 | CC(C)C(=O)c1c(C(C)C)nn2ccccc12 [Ibudilast, 2-methyl-1-(2-propan-2-ylpyrazolo[1,5-a]pyridin-3-yl)propan-1-one] |  | best PDEI's to enhance sperm motility in a viscous solution | 
6 | COc1ccc(Cc2nccc3cc(OC)c(OC)cc23)cc1OC [Papaverine] |  | best PDEI's to enhance sperm motility in a viscous solution | effect upon sperm motility (human sperm motility): greater than expected effect upon sperm motility
7 | CCC1C(C)=NN=C(c2ccc(OC)c(OC)c2)c2cc(OC)c(OC)cc21 (centres unmarked) [Tofisopam, 1-(3,4-dimethoxyphenyl)-5-ethyl-7,8-dimethoxy-4-methyl-5H-2,3-benzodiazepine] |  | best PDEI's to enhance sperm motility in a viscous solution | effect upon sperm motility (human sperm motility): greater than expected effect upon sperm motility
8 | COc1cc2c(cc1OC)-c1c/c(=N\c3c(C)cc(C)cc3C)n(C)c(=O)n1CC2 [Trequinsin hydrochloride] |  |  | Effect on Sperm Motility: Strong (human sperm motility): (X)
9 | CCOC(=O)C1=C[C@]2(CC)CCCN3CCc4c(n1c1ccccc41)[C@@H]32 [Vinpocetine] | (X) |  | 

Source: US20150231149A1, “SPERM FUNCTION/ACTIVITY” (University of Dundee, priority 2011, published 2015)
